# Experiments:
# [1] = target: T1, α-amylase derived from human pancreatic juice (HPA) (Homo sapiens, UniProt P04746); assay: In vitro amylase activity inhibition test, HPA (blue starch, Neo Amylase Test); format: biochemical; conditions: 37° C., 30 minutes, blue starch substrate
# T1 construct: purchased International Reagents Corp. Japan Calibzyme AMY
# T1 sequence (P04746 16-511): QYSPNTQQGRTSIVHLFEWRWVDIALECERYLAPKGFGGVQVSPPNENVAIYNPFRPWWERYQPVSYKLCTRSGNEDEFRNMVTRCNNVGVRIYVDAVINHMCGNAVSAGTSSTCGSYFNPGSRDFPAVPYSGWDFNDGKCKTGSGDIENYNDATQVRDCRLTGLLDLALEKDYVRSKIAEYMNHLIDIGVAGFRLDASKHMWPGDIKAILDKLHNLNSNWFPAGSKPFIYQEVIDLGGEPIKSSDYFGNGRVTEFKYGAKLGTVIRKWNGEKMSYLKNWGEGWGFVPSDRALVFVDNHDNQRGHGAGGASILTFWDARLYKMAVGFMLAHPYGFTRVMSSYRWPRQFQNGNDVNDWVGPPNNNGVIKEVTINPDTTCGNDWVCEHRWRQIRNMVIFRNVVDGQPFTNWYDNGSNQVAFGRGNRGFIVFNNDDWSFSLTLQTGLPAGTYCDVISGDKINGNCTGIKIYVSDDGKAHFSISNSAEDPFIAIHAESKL
# Experimental: (§1) (1) Preparation of Human α-amylase Solution
# (§2) Commercial HPA and HSA were dissolved in purified water to a concentration of 350 IU/1 to prepare an α-amylase solution. As commercial HPA and HSA, “Calibzyme AMY” (available from International Reagents Corp. Japan) was used. The α-amylase activity was determined according to the calibration curve of a commercial α-amylase determining reagent “Neo Amylase Test ┌FDAIICHI┘” (available from Daiichi Pure Chemicals Co., Ltd., Japan).
# (§3) (2) Preparation of Inhibitor Solution
# (§4) DOG2Az obtained in Example 1, GDOG2Az obtained in Example 2 and comparative G2Az (6^3-position non-modified maltoligosaccharide derivative disclosed in JP-A-9-278789) represented by the following formula
# (§5) (3) were diluted with distilled water so that the final concentration would become 5 to 0.0001 mM. [drawing 4]
# (§6) (3) Determination of Human α-amylase Inhibitory Activity (IC50) of Inhibitor Solution
# (§7) 3.0 ml of distilled water, 1.0 ml of the inhibitor solution, Neo Amylase Test ┌DAIICHI┘ (produced by Daiichi Pure Chemicals Co., Ltd., Japan) and one tablet of blue starch were added to 100 μl of HPA or HSA solution, and the mixture was stirred by a mixer for about 10 seconds and then heated at 37° C. for 30 minutes. Thereafter, 1.0 ml of 0.5 N sodium hydroxide solution was added and the mixture was further stirred. Then the reaction was stopped, the solution was centrifuged (1,500 G, 5 minutes) and absorbance of the supernatant at 620 nm was measured. In blank, distilled water was used in place of the inhibitor solution. “IC50” indicates the final concentration (mM) of the inhibitor material required for inhibiting the activity of HPA or HSA solution by 50%.
# [2] = target: T2, α-amylase derived from human salivary gland (HSA) (Homo sapiens, UniProt P0DUB6); assay: In vitro amylase activity inhibition test, HSA (blue starch, Neo Amylase Test); format: biochemical; conditions: 37° C., 30 minutes, blue starch substrate
# T2 construct: purchased International Reagents Corp. Japan Calibzyme AMY
# T2 sequence (P0DUB6 16-511): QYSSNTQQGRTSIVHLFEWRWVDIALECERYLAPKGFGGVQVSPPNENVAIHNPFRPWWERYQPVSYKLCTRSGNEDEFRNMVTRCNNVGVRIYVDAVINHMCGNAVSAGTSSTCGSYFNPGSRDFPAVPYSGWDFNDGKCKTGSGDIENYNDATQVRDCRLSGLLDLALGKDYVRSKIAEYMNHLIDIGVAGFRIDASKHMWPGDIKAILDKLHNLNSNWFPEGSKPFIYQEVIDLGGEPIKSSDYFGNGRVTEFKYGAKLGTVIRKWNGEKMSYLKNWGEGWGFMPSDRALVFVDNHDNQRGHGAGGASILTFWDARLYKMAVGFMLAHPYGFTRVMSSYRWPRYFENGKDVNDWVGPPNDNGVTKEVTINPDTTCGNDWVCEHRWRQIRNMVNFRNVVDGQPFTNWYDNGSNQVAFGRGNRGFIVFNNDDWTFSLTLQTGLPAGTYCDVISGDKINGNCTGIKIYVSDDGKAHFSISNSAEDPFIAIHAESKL
# Experimental: as §1, §2, §3, §4, §5, §6, §7
# blood glucose level = assay: Anti-diabetic action: inhibition of rise of blood glucose level after corn starch intake in mice; format: in vivo, mice (Crj:CD-1(ICR)); conditions: for Significant test (t-test): P value, inhibition of rise of blood glucose level; for Blood glucose level before intake: mice fasted 20 hours, 0 min; for Blood glucose level before intake / Blood glucose level 30 minute after intake: n=5, in mg/dL (unit assumed); for Blood glucose level 30 minute after intake: 30 minutes
# Experimental: Commercially available healthy mice (Crj:CD-1(ICR) with body weight of 20.5 to 26.0 g, bred by Japan Charles Liver Co., Ltd.), were used for the test.
# The mice were divided into three groups (n=5). After left fasting for 20 hours, the mice of the compound-administered groups were forced to take orally DOG2Az, G2Az and corn starch as saccharide which was made into a liquid state with sterilized distilled water.
# Blood was collected from the orbital vein of each mouse before and after the intake of the materials (0 and after 30 minutes), and the amount of glucose in blood was measured to determine the inhibitory effect against the rise of blood glucose level, i.e. anti-diabetic action of the compounds, after intake of corn starch. The inhibitory effect against the rise of blood glucose level was judged by t-test. Glucose concentration in blood was measured by a blood glucose level analyzer “ANTSENSE” (mfd. by Bayer Sankyo Ltd.).
SMILES,melting point,IC50 [1],IC50 [2],other results
"C[C@H]1O[C@H](O[C@H]2[C@H](O)[C@@H](O)[C@@H](O[C@H]3[C@H](O)[C@@H](O)CNC[C@H]3O)O[C@@H]2CO)[C@H](O)[C@@H](O)[C@@H]1O (hydrate or solvate) [DOG2Az, (3R, 4R, 5R, 6S)-Hexahydro-3,5,6-trihydroxy-1H-azepine-4-yl O-(6-deoxy-α-D-glucopyranosyl)-(1→4)-α-D-glucopyranoside]",132 to 134 °C (dec.),–,–,–
"C[C@H]1O[C@H](O[C@H]2[C@H](O)[C@@H](O)[C@@H](O[C@H]3[C@H](O)[C@@H](O)CNC[C@H]3O)O[C@@H]2CO)[C@H](O)[C@@H](O)[C@@H]1O [DOG2Az, (3R, 4R, 5R, 6S)-Hexahydro-3,5,6-trihydroxy-1H-azepine-4-yl O-(6-deoxy-α-D-glucopyranosyl)-(1→4)-α-D-glucopyranoside]",–,0.024 mM,0.037 mM,"Significant test (t-test) (blood glucose level; 5 mg/kg oral + corn starch 2,000 mg/kg): P < 0.1%; Blood glucose level before intake (blood glucose level; group given 5 mg/kg oral + corn starch 2,000 mg/kg): 101 ± 18; Blood glucose level 30 minute after intake (blood glucose level; mice, 5 mg/kg oral + corn starch 2,000 mg/kg): 136 ± 23; rise of blood glucose level in comparison with the control group (blood glucose level; mice, 5 mg/kg oral + corn starch 2,000 mg/kg, result in words): suppressed significantly"

# Second part, led by results:
melting point,IC50 [1],IC50 [2],SMILES,other results
144 to 146 °C (dec.),–,–,"C[C@H]1O[C@H](O[C@H]2[C@H](O)[C@@H](O)[C@@H](O[C@H]3[C@H](O)[C@@H](O)CNC[C@H]3O)O[C@@H]2CO)[C@H](O)[C@@H](O)[C@@H]1O[C@H]1O[C@H](CO)[C@@H](O)[C@H](O)[C@H]1O (hydrate or solvate) [GDOG2Az, (3R, 4R, 5R, 6S)-Hexahydro-3,5,6-trihydroxy-1H-azepine-4-yl O-(α-D-glucopyranosyl)-(1→4)-O-(6-deoxy-α-D-glucopyranosyl)-(1→4)-α-D-glucopyranoside]",–
–,0.043 mM,0.082 mM,"OCC1OC(OC2C(CO)OC(OC3C(O)CNCC(O)C3O)C(O)C2O)C(O)C(O)C1O (stereo not drawn) [Example G2Az, reference compound]","Significant test (t-test) (blood glucose level; 60 mg/kg oral + corn starch 2,000 mg/kg): P < 1%; Blood glucose level before intake (blood glucose level; group given 60 mg/kg oral + corn starch 2,000 mg/kg): 102 ± 21; Blood glucose level 30 minute after intake (blood glucose level; mice, 60 mg/kg oral + corn starch 2,000 mg/kg): 169 ± 8"
–,0.026 mM,0.028 mM,"C[C@H]1O[C@H](O[C@H]2[C@H](O)[C@@H](O)[C@@H](O[C@H]3[C@H](O)[C@@H](O)CNC[C@H]3O)O[C@@H]2CO)[C@H](O)[C@@H](O)[C@@H]1O[C@H]1O[C@H](CO)[C@@H](O)[C@H](O)[C@H]1O [GDOG2Az, (3R, 4R, 5R, 6S)-Hexahydro-3,5,6-trihydroxy-1H-azepine-4-yl O-(α-D-glucopyranosyl)-(1→4)-O-(6-deoxy-α-D-glucopyranosyl)-(1→4)-α-D-glucopyranoside]",–

# Reference: patent US6596696B1, “Malto-oligosaccharide derivatives and uses thereof” (Kikkoman Corporation, priority 1999, dated 2003)
